# Where “and” joins values, the source holds several entries; their conditions need not be identical. Equal entries are not always repeated. Where two headings read alike, the source gives them in different places.
# Legend:
# clinical [1] = assay type: in vivo, human
# Experimental: (§1) The lower limit of quantification (LLOQ) was 1 ng/ml in plasma and 2 ng/ml in urine and CSF, except for the 3‐month study where the method for CSF was more sensitive (LLOQ 0.1 ng/ml). Plasma PK parameters were calculated using actual recorded sampling times and non‐compartmental methods with Phoenix WinNonlin version 6.4 (Certara, Inc., Princeton, NJ, USA).
# For further details, see the Appendix Table S10 in Appendix and the accompanying clinical protocols synopsis (Appendix Table S11).
# clinical [2] = assay type: in vivo, human; details: for CSF Cmax: ≥ 60 years
# Experimental: as §1, with “USA). […]” for “USA).”
# [3] = assay type: in vivo; details: rat, 15.4 mg/kg oral
# H Nav 1.2 = H Nav 1.2 (Homo sapiens, UniProt Q99250); test: Functional assay; assay type: biochemical; details: read-out: Inhibition at 10 µM
# Chain of H Nav 1.2 (Q99250 whole entry): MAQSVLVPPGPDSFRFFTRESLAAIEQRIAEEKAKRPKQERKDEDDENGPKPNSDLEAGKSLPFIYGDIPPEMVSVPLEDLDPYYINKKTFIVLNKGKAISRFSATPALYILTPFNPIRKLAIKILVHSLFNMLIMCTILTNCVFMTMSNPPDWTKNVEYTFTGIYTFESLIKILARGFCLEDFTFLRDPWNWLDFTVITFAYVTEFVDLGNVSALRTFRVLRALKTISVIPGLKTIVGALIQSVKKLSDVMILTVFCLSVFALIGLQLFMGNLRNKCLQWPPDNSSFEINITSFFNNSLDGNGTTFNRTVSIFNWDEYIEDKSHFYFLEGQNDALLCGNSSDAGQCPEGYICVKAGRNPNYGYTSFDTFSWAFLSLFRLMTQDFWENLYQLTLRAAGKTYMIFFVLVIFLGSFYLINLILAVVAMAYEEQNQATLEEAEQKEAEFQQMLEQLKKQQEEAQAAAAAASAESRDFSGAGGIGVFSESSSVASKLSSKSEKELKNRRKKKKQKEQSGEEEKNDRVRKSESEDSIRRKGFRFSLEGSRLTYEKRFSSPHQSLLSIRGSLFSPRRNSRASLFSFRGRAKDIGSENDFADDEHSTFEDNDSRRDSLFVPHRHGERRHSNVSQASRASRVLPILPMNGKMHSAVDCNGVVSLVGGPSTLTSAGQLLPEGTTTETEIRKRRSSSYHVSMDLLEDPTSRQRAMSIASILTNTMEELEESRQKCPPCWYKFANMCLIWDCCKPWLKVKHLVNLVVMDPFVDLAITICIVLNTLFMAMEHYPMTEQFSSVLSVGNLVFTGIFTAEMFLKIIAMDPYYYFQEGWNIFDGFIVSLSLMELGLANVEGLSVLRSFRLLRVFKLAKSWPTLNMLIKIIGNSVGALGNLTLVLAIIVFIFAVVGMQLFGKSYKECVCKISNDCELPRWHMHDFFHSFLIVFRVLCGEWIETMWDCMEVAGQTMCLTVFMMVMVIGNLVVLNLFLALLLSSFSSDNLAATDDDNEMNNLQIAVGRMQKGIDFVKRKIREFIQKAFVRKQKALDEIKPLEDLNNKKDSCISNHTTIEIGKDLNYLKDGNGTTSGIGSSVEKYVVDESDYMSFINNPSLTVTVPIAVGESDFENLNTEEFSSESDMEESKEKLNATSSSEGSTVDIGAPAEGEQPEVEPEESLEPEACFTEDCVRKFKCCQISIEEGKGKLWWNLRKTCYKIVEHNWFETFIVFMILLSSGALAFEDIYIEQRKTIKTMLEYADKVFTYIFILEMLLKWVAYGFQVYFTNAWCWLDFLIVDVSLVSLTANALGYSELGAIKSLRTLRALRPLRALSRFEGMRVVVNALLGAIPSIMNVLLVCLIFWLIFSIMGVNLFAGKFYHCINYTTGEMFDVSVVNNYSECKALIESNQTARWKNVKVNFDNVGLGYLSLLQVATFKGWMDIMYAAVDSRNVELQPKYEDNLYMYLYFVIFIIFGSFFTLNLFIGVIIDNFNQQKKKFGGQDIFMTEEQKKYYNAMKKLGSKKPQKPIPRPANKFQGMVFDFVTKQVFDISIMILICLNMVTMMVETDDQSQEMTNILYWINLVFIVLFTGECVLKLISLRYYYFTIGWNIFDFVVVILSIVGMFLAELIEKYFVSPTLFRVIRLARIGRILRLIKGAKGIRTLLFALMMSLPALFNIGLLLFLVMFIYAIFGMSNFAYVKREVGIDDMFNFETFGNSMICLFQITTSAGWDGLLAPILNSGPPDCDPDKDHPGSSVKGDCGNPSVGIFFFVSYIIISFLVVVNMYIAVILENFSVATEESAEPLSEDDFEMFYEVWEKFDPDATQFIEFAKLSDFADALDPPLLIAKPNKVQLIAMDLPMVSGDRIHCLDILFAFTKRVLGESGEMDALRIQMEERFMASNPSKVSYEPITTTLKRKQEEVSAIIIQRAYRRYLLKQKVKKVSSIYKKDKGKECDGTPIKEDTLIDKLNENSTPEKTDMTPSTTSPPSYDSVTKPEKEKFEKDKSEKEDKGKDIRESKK
# Experimental: (§2) Cellular Aβ release assays were done in CHO cells stably transfected with human wild‐type and human APP were done as described (Neumann et al, 2015). Determinations of logD, pKa, and binding to brain homogenates were done internally at Novartis, Basel. Plasma protein binding was determined by equilibrium dialysis using diluted plasma from the corresponding species. MDR‐1‐MDCK cells were obtained from Prof. A. Berns, Netherlands Cancer Institute, Amsterdam NL, and bi‐directional transport measurements were done as described (Rueeger et al, 2011). Receptor binding assays were done against an internal receptor panel and externally at Ricerca Biosciences, Peitou, Taiwan. In vitro binding and cellular patch clamp assays for hERG were done at Preclinical Safety, Novartis, Basel.
# [4] = biological target: Monoamine transporter VMAT2 (Rattus norvegicus, UniProt Q01827); test: Functional assay; assay type: biochemical; details: read-out: Inhibition at 10 µM
# Chain of Monoamine transporter VMAT2 (Q01827 whole entry): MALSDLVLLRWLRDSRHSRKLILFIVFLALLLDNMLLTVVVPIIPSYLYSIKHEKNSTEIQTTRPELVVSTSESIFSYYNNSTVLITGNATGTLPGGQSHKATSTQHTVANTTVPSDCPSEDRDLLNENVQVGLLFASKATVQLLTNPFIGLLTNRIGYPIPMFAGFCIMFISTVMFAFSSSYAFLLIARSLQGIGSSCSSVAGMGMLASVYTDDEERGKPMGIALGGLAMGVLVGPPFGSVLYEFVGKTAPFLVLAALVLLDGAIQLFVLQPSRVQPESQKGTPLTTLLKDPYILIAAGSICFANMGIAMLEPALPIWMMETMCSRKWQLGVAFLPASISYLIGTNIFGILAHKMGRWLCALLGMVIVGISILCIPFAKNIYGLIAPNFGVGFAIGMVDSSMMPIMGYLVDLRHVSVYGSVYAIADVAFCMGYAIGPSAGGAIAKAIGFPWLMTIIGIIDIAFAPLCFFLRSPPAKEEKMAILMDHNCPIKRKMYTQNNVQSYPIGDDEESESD
# Experimental: as §2
# CSF Aβ40 and sAPPβ = test: Human CSF APP metabolites after single dose (serial CSF sampling); assay type: in vivo
# Excerpt: We investigated CSF Aβ and sAPPβ levels in humans by serial CSF sampling via an intrathecal catheter. […] Under these conditions, where Aβ production has completely stopped, the curves most likely reflect the rate of physiological clearance of Aβ40 and sAPPβ from human CSF.
# (A) Changes in Aβ40 relative to baseline values. (B) Changes in sAPPβ relative to baseline values.
# Human CSF was collected from an indwelling spinal catheter inserted into the lower spinal canal (in the single ascending dose (SAD) PD first in human (FIH) study) or by a lumbar puncture (in the multiple ascending dose (MAD) PD Phase I study and Phase IIa study), and by trained personnel at the site and as per their standard operating procedure (SOP). CSF Aβ38, Aβ40, Aβ42, sAPPα, and sAPPβ were quantified in human CSF with 0.2% (v/v) Tween®‐20 using validated sandwich‐based multiplexed electrochemiluminescence methods (MesoScale Discovery, […], MD, USA).
# [5] = single dose 1250 mg, adults (2), individual data points
# [6] = after a 750 mg CNP520 dose, n=6
smiles,measurement,setting,value
C[C@@]1(c2nc(NC(=O)c3ncc(C(F)(F)F)cc3Cl)ccc2F)CO[C@@](C)(C(F)(F)F)C(N)=N1 [CNP520],AUC(0-inf),"clinical [1]; human, plasma, oral, 90 mg, single dose 90 mg, adults (6), mean (%CV)",7190 ng·h/mL
same,Cmax,"clinical [1]; human, plasma, oral, 90 mg, single dose 90 mg, adults (6), mean (%CV), read-out: Cmax",138 ng/mL
same,half-life,"clinical [1]; human, plasma, oral, 90 mg, single dose 90 mg, adults (6), mean (%CV), read-out: T1/2 (converted)",66.2 h
same,Tmax,"clinical [1]; human, plasma, oral, 90 mg, single dose 90 mg, adults (6), median (min–max), read-out: Tmax",3.5 h
same,Cmax,"clinical [1]; human, plasma, oral, 90 mg, single dose 90 mg, adults ≥ 60 years (6), mean (%CV), read-out: Cmax",172 ng/mL
same,Tmax,"clinical [1]; human, plasma, oral, 90 mg, single dose 90 mg, adults ≥ 60 years (6), median (min–max), read-out: Tmax",2.02 h
same,Tmax,"clinical [1]; human, plasma, oral, 300 mg, 14 days, Day 14, median (min–max)",2.51 h
same,Cmax,"clinical [1]; human, plasma, oral, 300 mg, 14 days, Day 14, ≥ 60 years, mean (CV% 25.1)",1710 ng/mL
same,AUC(0-t),"clinical [1]; human, plasma, oral, 300 mg, AUC 0–24h, 300 mg, 14 days, Day 14, mean (CV%)",28300 ng·h/mL
same,AUC(0-inf),"clinical [1]; human, plasma, oral, 300 mg, single dose 300 mg, adults (6), mean (%CV)",23500 ng·h/mL
same,Cmax,"clinical [1]; human, plasma, oral, 300 mg, single dose 300 mg, adults (6), mean (%CV), read-out: Cmax",498 ng/mL
same,half-life,"clinical [1]; human, plasma, oral, 300 mg, single dose 300 mg, adults (6), mean (%CV), read-out: T1/2 (converted)",57.9 h
same,Tmax,"clinical [1]; human, plasma, oral, 300 mg, single dose 300 mg, adults (6), median (min–max), read-out: Tmax",6 h
same,Cmax,"clinical [1]; human, plasma, oral, 300 mg, single dose 300 mg, adults ≥ 60 years (18), mean (%CV), read-out: Cmax",440 ng/mL
same,Tmax,"clinical [1]; human, plasma, oral, 300 mg, single dose 300 mg, adults ≥ 60 years (18), median (min–max), read-out: Tmax",5.04 h
same,AUC(0-inf),"clinical [1]; human, plasma, oral, 750 mg, single dose 750 mg, adults (6), mean (%CV)",90100 ng·h/mL
same,Cmax,"clinical [1]; human, plasma, oral, 750 mg, single dose 750 mg, adults (6), mean (%CV), read-out: Cmax",1150 ng/mL
same,half-life,"clinical [1]; human, plasma, oral, 750 mg, single dose 750 mg, adults (6), mean (%CV), read-out: T1/2 (converted)",83.8 h
same,Tmax,"clinical [1]; human, plasma, oral, 750 mg, single dose 750 mg, adults (6), median (min–max), read-out: Tmax",2.5 h
same,Cmax,"clinical [1]; human, plasma, oral, 750 mg, single dose 750 mg, adults ≥ 60 years (20), mean (%CV), read-out: Cmax",1120 ng/mL
same,Tmax,"clinical [1]; human, plasma, oral, 750 mg, single dose 750 mg, adults ≥ 60 years (20), median (min–max), read-out: Tmax",3 h
same,AUC(0-inf),"clinical [1]; human, plasma, oral, 1250 mg, single dose 1250 mg, adults (2), individual data points",168000 ng·h/mL
same,Cmax,"clinical [1]; human, plasma, oral, 1250 mg, single dose 1250 mg, adults (2), individual data points, read-out: Cmax",2850 ng/mL
same,half-life,"clinical [1]; human, plasma, oral, 1250 mg, single dose 1250 mg, adults (2), individual data points, read-out: T1/2 (converted)",76.4 h
same,Tmax,"clinical [1]; human, plasma, oral, 1250 mg, single dose 1250 mg, adults (2), individual data points, read-out: Tmax",4 h
same,Tmax,"clinical [1]; human, plasma, oral, after dose, human pharmacokinetic studies, read-out: T max",1 to 8 h
same,half-life,"clinical [1]; human, plasma, oral, healthy adult participants, single dose, read-out: mean terminal T 1/2",61.3 to 83.8 h
same,AUCinf,clinical [1]; [5],184000 ng·h/mL
same,Cmax,clinical [1]; [5],2890 ng/mL
same,T1/2,clinical [1]; [5],86.1 h
same,Tmax,clinical [1]; [5],8.00 h
same,unbound concentration of CNP520 in plasma,"clinical [1]; typically, at pharmacologically active doses in animals and humans",below 0.1 μM
same,CSF conc 24h after dose Day 14,"clinical [2]; 10 mg q.d., 2 weeks, LLOQ 2 ng/ml in CSF",< LLOQ
same,concentration at 24 h,"clinical [2]; both sexes, human, CSF, oral, 2 mg q.d., 3 month study, mean (CV %), read-out: CSF conc 24h after dose Day 91",0.305 ng/mL
same,concentration at 24 h,"clinical [2]; both sexes, human, CSF, oral, 10 mg q.d., 3 month study, mean (CV %), read-out: CSF conc 24h after dose Day 91",1.44 ng/mL
same,concentration at 24 h,"clinical [2]; both sexes, human, CSF, oral, 30 mg q.d., 2 weeks, mean (CV %), read-out: CSF conc 24h after dose Day 14",3.33 ng/mL
same,concentration at 24 h,"clinical [2]; both sexes, human, CSF, oral, 35 mg q.d., 3 month study, mean (CV %), read-out: CSF conc 24h after dose Day 91",4.52 ng/mL
same,concentration at 24 h,"clinical [2]; both sexes, human, CSF, oral, 85 mg q.d., 3 month study, mean (CV %), read-out: CSF conc 24h after dose Day 91",10.4 ng/mL
same,concentration at 24 h,"clinical [2]; both sexes, human, CSF, oral, 90 mg q.d., 2 weeks, mean (CV %), read-out: CSF conc 24h after dose Day 14",9.48 ng/mL
same,concentration at 24 h,"clinical [2]; both sexes, human, CSF, oral, 300 mg q.d., 2 weeks, mean (CV %), read-out: CSF conc 24h after dose Day 14",29.8 ng/mL
same,Cmax,"clinical [2]; both sexes, human, CSF, oral, single dose of 750 mg, read-out: CSF mean C max",39.7 nM
same,CSF Cmax,"clinical [2]; single dose 10 mg, LLOQ 2 ng/ml in CSF",< LLOQ
same,CSF Cmax,"clinical [2]; single dose 90 mg, mean (CV %)",3.33 ( 65.2 ) ng/ml
same,CSF Cmax,"clinical [2]; single dose 300 mg, mean (CV %)",10.5 (49.1) ng/ml
same,CSF Cmax,"clinical [2]; single dose 750 mg, mean (CV %)",20.4 (44.8) ng/ml and 20.4 ng/ml
same,peak concentration of unbound CNP520 in the brain,[3],50 nM
same,inhibition at 10 µM,H Nav 1.2,23.6%
same,inhibition at 10 µM,[4],80%
same,maximum reduction in CSF Aβ40 from baseline,"CSF Aβ40 and sAPPβ; 750-mg single dose, mean ± SD",79.1 ± 8.9%
same,"first-order rate constant k, Aβ40 in human CSF",CSF Aβ40 and sAPPβ; [6],0.068 ± 0.002 h⁻¹
same,"first-order rate constant k, sAPPβ in human CSF",CSF Aβ40 and sAPPβ; [6],0.043 ± 0.004 h⁻¹
